Source: ChEMBL document CHEMBL5442334, “ASAP - In vitro safety pharmacology profile” (2024)

Experiments:
[1] = molecular target: 5-hydroxytryptamine receptor 2B (Homo sapiens) (UniProt P41595); experiment: SafetyScreen: 5-HT2B Human Serotonin GPCR [125I](±)DOI Binding Agonist Radioligand LeadHunter Assay, catalogue number: 1333; conditions: Test compound concentration 10.0 uM
[2] = molecular target: T1, Alpha-2A adrenergic receptor (Homo sapiens) (UniProt P08913); experiment: SafetyScreen: alpha2A Human Adrenoceptor GPCR Binding Antagonist Radioligand LeadHunter Assay, catalogue number: 13; conditions: Test compound concentration 10.0 uM
T1 sequence (whole entry): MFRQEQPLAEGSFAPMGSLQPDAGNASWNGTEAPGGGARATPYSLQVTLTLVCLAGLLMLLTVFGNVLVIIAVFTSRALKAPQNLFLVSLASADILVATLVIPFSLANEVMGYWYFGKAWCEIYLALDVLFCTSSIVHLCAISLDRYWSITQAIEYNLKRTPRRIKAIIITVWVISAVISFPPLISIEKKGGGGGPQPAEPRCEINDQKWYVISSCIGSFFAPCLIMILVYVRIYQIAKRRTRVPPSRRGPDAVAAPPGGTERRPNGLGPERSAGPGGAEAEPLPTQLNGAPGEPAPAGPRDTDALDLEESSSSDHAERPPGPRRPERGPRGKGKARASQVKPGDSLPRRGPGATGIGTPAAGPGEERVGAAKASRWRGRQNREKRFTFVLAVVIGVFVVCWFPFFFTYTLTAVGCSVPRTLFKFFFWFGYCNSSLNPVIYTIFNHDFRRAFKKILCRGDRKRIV

[3] = molecular target: T2, Amine oxidase [flavin-containing] A (Rattus norvegicus, UniProt P21396); experiment: SafetyScreen: Monoamine Oxidase A (MAO-A) Rat Binding Antagonist Radioligand LeadHunter Assay, catalogue number: 443; conditions: at 10 µM, test compound concentration 10 uM
T2 sequence (P21396 whole entry): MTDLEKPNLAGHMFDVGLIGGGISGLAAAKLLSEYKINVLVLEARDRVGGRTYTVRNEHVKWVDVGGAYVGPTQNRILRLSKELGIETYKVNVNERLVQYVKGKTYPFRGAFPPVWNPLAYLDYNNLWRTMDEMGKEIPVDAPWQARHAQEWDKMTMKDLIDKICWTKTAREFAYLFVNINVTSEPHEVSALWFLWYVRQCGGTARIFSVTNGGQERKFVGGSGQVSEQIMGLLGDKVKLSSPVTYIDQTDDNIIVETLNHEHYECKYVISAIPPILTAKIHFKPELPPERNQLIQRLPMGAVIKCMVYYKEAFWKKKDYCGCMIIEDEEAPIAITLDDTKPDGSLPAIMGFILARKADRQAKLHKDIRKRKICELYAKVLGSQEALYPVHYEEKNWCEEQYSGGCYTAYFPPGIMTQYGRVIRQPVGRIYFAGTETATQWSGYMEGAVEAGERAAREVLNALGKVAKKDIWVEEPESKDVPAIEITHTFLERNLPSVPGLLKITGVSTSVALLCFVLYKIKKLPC

[4] = molecular target: Acetylcholinesterase (Homo sapiens) (UniProt P22303); experiment: SafetyScreen: Acetylcholinesterase Human Enzymatic LeadHunter Assay, catalogue number: 363; format: functional; conditions: Test compound concentration 10.0 uM
Acetylcholinesterase (Homo sapiens), sequence (P22303 whole entry): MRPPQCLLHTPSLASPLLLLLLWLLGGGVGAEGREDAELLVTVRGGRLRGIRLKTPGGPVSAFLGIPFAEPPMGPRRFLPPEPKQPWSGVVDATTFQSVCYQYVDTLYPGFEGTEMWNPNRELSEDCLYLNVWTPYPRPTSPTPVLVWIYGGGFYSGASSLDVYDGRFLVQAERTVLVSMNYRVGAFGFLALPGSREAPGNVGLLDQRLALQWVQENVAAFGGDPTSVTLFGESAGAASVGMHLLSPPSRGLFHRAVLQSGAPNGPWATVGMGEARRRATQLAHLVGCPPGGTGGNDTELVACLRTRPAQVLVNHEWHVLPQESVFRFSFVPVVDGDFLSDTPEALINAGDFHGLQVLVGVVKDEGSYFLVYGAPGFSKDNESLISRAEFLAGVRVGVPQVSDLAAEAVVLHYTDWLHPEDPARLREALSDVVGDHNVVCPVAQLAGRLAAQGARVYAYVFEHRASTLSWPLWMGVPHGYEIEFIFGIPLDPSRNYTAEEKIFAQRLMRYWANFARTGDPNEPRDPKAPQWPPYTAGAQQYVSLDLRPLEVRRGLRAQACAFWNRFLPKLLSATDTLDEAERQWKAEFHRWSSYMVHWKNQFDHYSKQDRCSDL

[5] = molecular target: Vasopressin V1a receptor (Homo sapiens) (UniProt P37288); experiment: SafetyScreen: V1A Human Vasopressin / Oxytocin GPCR Binding Agonist Radioligand LeadHunter Assay, catalogue number: 159; conditions: Test compound concentration 10.0 uM
Vasopressin V1a receptor (Homo sapiens), sequence (P37288 whole entry, looked up): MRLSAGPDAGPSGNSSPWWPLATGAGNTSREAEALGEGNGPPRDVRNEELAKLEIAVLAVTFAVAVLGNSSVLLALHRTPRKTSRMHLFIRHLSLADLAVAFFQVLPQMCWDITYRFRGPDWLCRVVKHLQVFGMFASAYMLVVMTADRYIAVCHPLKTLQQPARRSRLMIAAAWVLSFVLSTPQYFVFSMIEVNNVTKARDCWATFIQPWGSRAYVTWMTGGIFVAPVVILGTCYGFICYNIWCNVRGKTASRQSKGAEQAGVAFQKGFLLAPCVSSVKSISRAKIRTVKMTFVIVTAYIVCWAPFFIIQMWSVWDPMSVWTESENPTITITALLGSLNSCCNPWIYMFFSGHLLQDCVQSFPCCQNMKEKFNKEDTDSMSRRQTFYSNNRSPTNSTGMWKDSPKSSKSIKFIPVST

[6] = molecular target: D(1A) dopamine receptor (Homo sapiens) (UniProt P21728); experiment: SafetyScreen: D1 Human Dopamine GPCR Binding Antagonist Radioligand LeadHunter Assay, catalogue number: 44; conditions: Test compound concentration 10.0 uM
D(1A) dopamine receptor (Homo sapiens), sequence (P21728 whole entry): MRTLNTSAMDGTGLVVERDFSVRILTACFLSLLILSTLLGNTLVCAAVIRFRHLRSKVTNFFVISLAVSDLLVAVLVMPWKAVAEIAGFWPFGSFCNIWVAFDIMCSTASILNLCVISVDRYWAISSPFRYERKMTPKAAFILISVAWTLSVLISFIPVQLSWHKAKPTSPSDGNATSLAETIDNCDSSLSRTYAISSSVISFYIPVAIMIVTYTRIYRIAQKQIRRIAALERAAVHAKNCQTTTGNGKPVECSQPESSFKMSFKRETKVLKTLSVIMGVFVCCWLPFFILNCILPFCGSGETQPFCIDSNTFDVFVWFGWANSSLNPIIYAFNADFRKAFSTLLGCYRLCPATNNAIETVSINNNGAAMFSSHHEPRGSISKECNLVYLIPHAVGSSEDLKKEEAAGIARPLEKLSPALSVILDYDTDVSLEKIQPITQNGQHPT

[7] = molecular target: Cannabinoid receptor 2 (Homo sapiens) (UniProt P34972); experiment: SafetyScreen: CB2 Human Cannabinoid GPCR Binding Agonist Radioligand LeadHunter Assay, catalogue number: 37; conditions: Test compound concentration 10.0 uM
Cannabinoid receptor 2 (Homo sapiens), sequence (P34972 whole entry): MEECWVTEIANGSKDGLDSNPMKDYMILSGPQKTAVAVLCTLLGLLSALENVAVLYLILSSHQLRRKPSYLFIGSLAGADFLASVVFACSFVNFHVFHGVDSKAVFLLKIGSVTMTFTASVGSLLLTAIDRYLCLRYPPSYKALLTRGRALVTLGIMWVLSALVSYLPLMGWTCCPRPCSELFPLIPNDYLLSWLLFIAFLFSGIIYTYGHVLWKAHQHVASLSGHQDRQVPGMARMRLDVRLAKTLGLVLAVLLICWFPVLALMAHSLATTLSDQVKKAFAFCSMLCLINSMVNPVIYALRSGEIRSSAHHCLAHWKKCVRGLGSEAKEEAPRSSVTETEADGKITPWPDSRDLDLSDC

[8] = molecular target: T3, Cholecystokinin receptor type A (Homo sapiens) (UniProt P32238); experiment: SafetyScreen: CCK1 (CCKA) Human Cholecystokinin GPCR Binding Agonist Radioligand LeadHunter Assay, catalogue number: 39; conditions: Test compound concentration 10.0 uM
T3 sequence (whole entry): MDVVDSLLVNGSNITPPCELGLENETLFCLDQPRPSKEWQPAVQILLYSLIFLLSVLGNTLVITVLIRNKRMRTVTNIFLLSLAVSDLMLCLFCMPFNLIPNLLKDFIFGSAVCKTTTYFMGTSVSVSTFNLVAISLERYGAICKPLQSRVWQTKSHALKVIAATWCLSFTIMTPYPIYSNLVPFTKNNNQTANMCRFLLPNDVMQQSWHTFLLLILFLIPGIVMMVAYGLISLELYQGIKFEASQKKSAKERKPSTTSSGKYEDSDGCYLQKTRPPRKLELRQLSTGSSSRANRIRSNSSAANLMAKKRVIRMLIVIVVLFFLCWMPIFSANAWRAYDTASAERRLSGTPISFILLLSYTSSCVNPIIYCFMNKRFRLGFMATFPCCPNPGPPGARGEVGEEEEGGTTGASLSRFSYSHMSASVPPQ

[9] = molecular target: T4, Androgen receptor (Homo sapiens) (UniProt P10275); experiment: SafetyScreen: AR Human Androgen NHR Binding Agonist Radioligand LeadHunter Assay, catalogue number: 933; conditions: Test compound concentration 10.0 uM
T4 sequence (whole entry): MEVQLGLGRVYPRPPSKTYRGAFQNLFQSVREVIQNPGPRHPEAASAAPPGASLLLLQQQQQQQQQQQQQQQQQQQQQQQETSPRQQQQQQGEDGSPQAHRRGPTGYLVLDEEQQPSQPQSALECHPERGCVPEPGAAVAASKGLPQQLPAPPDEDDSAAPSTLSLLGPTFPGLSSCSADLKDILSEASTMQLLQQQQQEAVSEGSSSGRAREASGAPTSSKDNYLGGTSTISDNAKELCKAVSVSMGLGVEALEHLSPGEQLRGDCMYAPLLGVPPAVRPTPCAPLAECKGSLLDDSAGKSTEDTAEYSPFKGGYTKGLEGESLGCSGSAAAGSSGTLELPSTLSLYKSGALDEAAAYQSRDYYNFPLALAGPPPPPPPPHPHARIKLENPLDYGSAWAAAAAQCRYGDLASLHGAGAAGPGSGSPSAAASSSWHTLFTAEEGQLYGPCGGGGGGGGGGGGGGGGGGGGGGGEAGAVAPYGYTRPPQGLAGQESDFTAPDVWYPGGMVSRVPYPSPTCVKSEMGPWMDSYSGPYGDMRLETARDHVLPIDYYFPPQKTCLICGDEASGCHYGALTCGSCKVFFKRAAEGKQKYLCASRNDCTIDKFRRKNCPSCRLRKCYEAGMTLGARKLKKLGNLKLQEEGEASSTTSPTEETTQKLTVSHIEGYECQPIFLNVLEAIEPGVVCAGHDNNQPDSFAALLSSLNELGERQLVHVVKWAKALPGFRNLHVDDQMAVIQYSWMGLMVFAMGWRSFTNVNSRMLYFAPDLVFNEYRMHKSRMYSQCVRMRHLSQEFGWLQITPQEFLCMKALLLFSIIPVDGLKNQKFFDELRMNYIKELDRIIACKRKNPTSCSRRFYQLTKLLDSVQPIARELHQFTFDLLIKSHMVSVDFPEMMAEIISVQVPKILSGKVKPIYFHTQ

5-hydroxytryptamine receptor 2B (Homo sapiens), sequence (P41595 whole entry): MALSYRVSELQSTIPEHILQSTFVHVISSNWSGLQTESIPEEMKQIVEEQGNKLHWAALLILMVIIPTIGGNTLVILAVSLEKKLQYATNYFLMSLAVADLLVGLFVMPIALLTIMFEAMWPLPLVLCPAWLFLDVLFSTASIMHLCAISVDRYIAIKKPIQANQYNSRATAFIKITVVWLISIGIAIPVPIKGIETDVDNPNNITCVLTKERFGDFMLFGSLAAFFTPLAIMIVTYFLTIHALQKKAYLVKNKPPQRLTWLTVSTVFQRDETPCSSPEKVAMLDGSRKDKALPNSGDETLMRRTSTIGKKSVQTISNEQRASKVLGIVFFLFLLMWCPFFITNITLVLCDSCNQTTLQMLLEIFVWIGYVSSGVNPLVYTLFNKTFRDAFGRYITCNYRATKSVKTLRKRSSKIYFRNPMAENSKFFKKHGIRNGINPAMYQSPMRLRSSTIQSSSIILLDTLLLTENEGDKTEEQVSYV

## Cn1ncc(-c2cc3c(N[C@@H](c4ccc5c(n4)OCCO5)C(C)(C)C)ncnc3[nH]2)c1C#N
[1]
  inhibition: -5%
[2]
  inhibition: 11%
[3]
  Inhibition: 10%
[4]
  inhibition: 14%
[5]
  inhibition: 57%
[6]
  inhibition: 9%
[7]
  inhibition: 31%
[8]
  inhibition: 4%
[9]
  inhibition: 5%

## C[C@H](C(=O)O)[C@@H](NC(=O)c1ncnc2[nH]ccc12)c1ccc(Br)cc1
[1]
  inhibition: -4%
[2]
  inhibition: 3%
[3]
  Inhibition: -1%
[4]
  inhibition: 12%
[5]
  inhibition: 62%
[6]
  inhibition: -8%
[7]
  inhibition: -5%
[8]
  inhibition: 6%
[9]
  inhibition: 12%

## CC(C)[C@@H](Nc1ncnc2[nH]c(-c3cnn(C)c3C#N)cc12)c1ccc2c(n1)OCCO2
[1]
  inhibition: 40%
[2]
  inhibition: 9%
[3]
  Inhibition: 8%
[4]
  inhibition: 22%
[5]
  inhibition: 20%
[6]
  inhibition: 10%
[7]
  inhibition: 16%
[8]
  inhibition: 20%
[9]
  inhibition: 12%

## CNC(=O)Cn1cc(-c2cc3c(N[C@@H](c4ccc5c(c4)S(=O)(=O)CCC5)C(C)C)ncnc3[nH]2)cn1
[1]
  inhibition: 25%
[2]
  inhibition: 4%
[3]
  Inhibition: 8%
[4]
  inhibition: 13%
[5]
  inhibition: 15%
[6]
  inhibition: 1%
[8]
  inhibition: -4%
[9]
  inhibition: 0%

## CC(C)[C@H](Nc1ncnc2[nH]c(-c3cnn(C)c3C#N)cc12)c1ccc2c(n1)OCCO2
[1]
  inhibition: 18%
[2]
  inhibition: 7%
[3]
  Inhibition: 4%
[4]
  inhibition: 15%
[5]
  inhibition: 27%
[6]
  inhibition: 27%
[7]
  inhibition: 44%
[8]
  inhibition: 1%
[9]
  inhibition: -3%

## CNCc1cc(-c2cc3c(N[C@@H](c4ccc5c(c4)S(=O)(=O)CCC5)C(C)C)ncnc3[nH]2)co1
[2]
  inhibition: 15%
[3]
  Inhibition: 11%
[4]
  inhibition: 10%
[5]
  inhibition: 13%
[6]
  inhibition: 14%
[7]
  inhibition: -8%
[9]
  inhibition: 10%

## COc1ccc([C@H](Cc2nnn[nH]2)NC(=O)c2ncnc3[nH]ccc23)cc1
[2]
  inhibition: -1%
[3]
  Inhibition: 0%
[4]
  inhibition: 11%
[5]
  inhibition: 5%
[8]
  inhibition: -5%
[9]
  inhibition: -2%

## CC(C)[C@@H](Nc1ncnc2[nH]c(C(=O)N[C@@H]3CCN(C)C3)cc12)c1ccc2c(c1)S(=O)(=O)CCC2
[1]
  inhibition: 6%
[2]
  inhibition: 6%
[3]
  Inhibition: 3%
[4]
  inhibition: 28%
[5]
  inhibition: 6%
[6]
  inhibition: -3%
[7]
  inhibition: -8%
[8]
  inhibition: 7%
[9]
  inhibition: -5%

## CC(C)[C@H](Nc1ncnc2[nH]ccc12)c1ccc2c(c1)S(=O)(=O)CCC2
[1]
  inhibition: 54%
[2]
  inhibition: 10%
[3]
  Inhibition: 7%
[4]
  inhibition: 12%
[5]
  inhibition: 6%
[6]
  inhibition: -4%
[8]
  inhibition: -2%
[9]
  inhibition: 0%

## Cc1nn(C)cc1-c1cc2c(N[C@H](c3ccc4c(c3)S(=O)(=O)CCC4)C(C)C)ncnc2[nH]1
[1]
  inhibition: 43%
[2]
  inhibition: 5%
[3]
  Inhibition: 5%
[4]
  inhibition: 13%
[5]
  inhibition: 14%
[6]
  inhibition: 3%
[7]
  inhibition: -8%
[8]
  inhibition: -8%
[9]
  inhibition: 6%
